What was measured:
Type in all cases: in vivo, male Wistar rats
optic nerve and retina = assay: Cellular morphology of optic nerve and retina sections after intraocular injection; conditions: 24 hours
Method: (§1) A group of 55 male Wistar rats, average weight 300-350 g, were housed in controlled light and temperature with unlimited access to food and water. 20 animals were submitted to intraocular injection of 0.5 mM, 2 mM, 3.5 mM, 5 mM mildronate, 15 µl in physiological solution, to standardize experimental conditions (data not shown). A group of 5 animals were submitted to intraocular injection of 2% methylcellulose (MTC), 15 µl in physiological solution. MTC is a molecule capable of mechanically blocking the outflow of aqueous humor leading to ocular hypertension.
(§2) Thirty animals were randomly separated into 3 experimental groups: rats from first group received mildronate 5 mM; rats from second group received mildronate 2 mM; rats from third group received mildronate 2 mM + L-carnitine 0.6 mM, 15 µl in physiological solution; all controlateral eyes were used as control.
(§3) After local anesthesia with 0.4% oxybuprocaine eye drops (Novesina™, Novartis, Basel, Switzerland) and after induction with ether, animal were injected in the posterior chamber of the right eye with solutions described above.
24 hours after the intraocular injection, rats were given general anesthesia by intra-peritoneal injection of 500 pl sodium-thiopental solution (Farmotal™, Pharmacia & Upjohn, USA) in saline. They were then sacrificed by carotid bleeding and eyeballs were removed. […]

[1] = system: RGCs and astrocytes cells of the optic nerve; assay: TUNEL assay (DNA damage) on eye sections after intraocular injection; conditions: 24 hours
Method: as §1, with “hypertension. […]” for “hypertension.”
The sections (thickness of 10 µm), left to dry at room temperature for 30 min, were subjected to the following treatments: rehydration through a descending alcohol series (100°, 95°, 75°; 2 min each); incubation with protease 20 µg/mL in Triton X-100 to 0.1% at 37°C for 30 min; washes with 1X PBS for 2 min; incubation with TUNEL reagent (In Situ Cell Death Detection Kit, AP/ROCHE), containing 1/10 in volume of terminal deoxynucleotidyl transferase and the remaining fraction of nucleotides labeled with a fluorescent chromophore, 10 µl per section at 37°C for 1h. […] The observations were made under a fluorescence microscope and pictures were taken by computerized image acquisition.

iNOS = iNOS expression by immunohistochemistry (confirmed by western blot of retina extracts)
Method: as §1, §2, §3
(§4) 24 hours after the intraocular injection, rats were given general anesthesia by intra-peritoneal injection of 500 pl sodium-thiopental solution (Farmotal™, Pharmacia & Upjohn, USA) in saline. They were then sacrificed by carotid bleeding and eyeballs were removed.
iNOS expression was detected with a rabbit polyclonal anti-iNOS antibody (Santa Cruz) (1:50), followed by a green fluorescent goat anti-rabbit IgG Alexa Fluor® (Molecular Probes) secondary antibody. […]
(§5) The observations were made under a fluorescence microscope and pictures taken by computerized image acquisition. […]

Caspase-3 = Caspase-3 expression by immunohistochemistry (confirmed by western blot of retina extracts)
Method: as §1, §2, §3, §4
Caspase-3 expression was detected with a rabbit polyclonal anti-caspase-3 antibody (Santa Cruz) (1:100), followed by a green fluorescent goat anti-rabbit IgG Alexa Fluor® (Molecular Probes) secondary antibody. […]
as §5

SMILES: C[N+](C)(C)NCCC(=O)[O-] [mildronate, 3-(2,2,2-trimethylhydrazinium)propionate]
- Cellular morphology of optic nerve (optic nerve and retina; mildronate 5 mM, 15 µl intraocular injection, vs control eye): fibers do not run longitudinally, the papilla shows an excavation
- Cellular morphology of retina (optic nerve and retina; mildronate treated animals, intraocular injection): picnotic and/or vacuolated nuclei and fragmented chromatin
- DNA damage (TUNEL fluorescence due to DNA fragmentation) ([1]; mildronate 2 mM): slight positive fluorescence
- DNA damage (TUNEL fluorescence due to DNA fragmentation) ([1]; mildronate 5 mM, RGCs and astrocytes of the optic nerve): strong fluorescence
- iNOS expression (iNOS; 2 mM mildronate, optic nerve and retina, with respect to 5 mM mildronate-treated specimens): mild decrease of iNOS expression
- iNOS expression (iNOS; 5 mM mildronate, 24 hours, glial retinal cells and astrocytes of optic nerve, compared to control): high levels of iNOS
- NO levels and iNOS immunolocalization (iNOS; summary statement, dose not stated): increased NO levels and iNOS immunolocalization
- Caspase-3 expression (Caspase-3; 2 mM mildronate, optic nerve and retina): mild decrease of positivity
- Caspase-3 expression (Caspase-3; 5 mM mildronate, astrocytes and retinal cells): high caspase-3 levels
- Apoptosis of retinal ganglion cells and optic nerve astrocytes (Caspase-3; summary statement, 24 hours after treatment): showed apoptosis

— patent EP2842557A1, “Mildronate in ophthalmic disorders” (SIGMA-TAU Industrie Farmaceutiche Riunite S.p.A., priority 2013, dated 2015)
